Measured values: patent US12319709B2, “Diaryl trehalose compounds and uses thereof” (THE UNIVERSITY OF MONTANA, priority 2018, dated 2025)

Test system: RAW264.7 cells
Assay: Cytokine (TNFα) response of mouse macrophage cell line; Table 2 'Murine'
Type: cell-based
Design: Maximum cytokine response Murine: unit not given here
Details: NR = no response
Procedure: Compounds were also tested in a mouse macrophage cell line (FIG. 4B). RAW264.7 cells were subjected to increasing concentrations of the compounds and assessed for production of the cytokine TNFα.

Structure (SMILES) | Maximum cytokine response Murine | Minimal Effective Concentration Murine
Cc1cc(C)c(C)c(C(=O)OC[C@H]2O[C@H](O[C@H]3O[C@H](COC(=O)c4c(C)c(C)cc(C)c4C)[C@@H](O)[C@H](O)[C@H]3O)[C@H](O)[C@@H](O)[C@@H]2O)c1C [UM1113] | 11 | 2.5 µM
Cc1cc(C)cc(C(=O)NC[C@H]2O[C@H](O[C@H]3O[C@H](CNC(=O)c4cc(C)cc(C)c4)[C@@H](O)[C@H](O)[C@H]3O)[C@H](O)[C@@H](O)[C@@H]2O)c1 [UM1108] | 33 | 3 µM
O=C(OC[C@H]1O[C@H](O[C@H]2O[C@H](COC(=O)c3cccc(-c4ccccc4)c3O)[C@@H](O)[C@H](O)[C@H]2O)[C@H](O)[C@@H](O)[C@@H]1O)c1cccc(-c2ccccc2)c1O [UM1063] | 2.5 | 100 µM
CN(C)c1cccc(C(=O)OC[C@H]2O[C@H](O[C@H]3O[C@H](COC(=O)c4cccc(N(C)C)c4)[C@@H](O)[C@H](O)[C@H]3O)[C@H](O)[C@@H](O)[C@@H]2O)c1 [UM1076] | 1.3 | 3.7 µM
Cc1cc(C)c(C(=O)OC[C@H]2O[C@H](O[C@H]3O[C@H](COC(=O)c4c(C)cc(C)cc4C)[C@@H](O)[C@H](O)[C@H]3O)[C@H](O)[C@@H](O)[C@@H]2O)c(C)c1 [UM1115] | 11 | 3.3 µM
COc1ccc(C(=O)OC[C@H]2O[C@H](O[C@H]3O[C@H](COC(=O)c4ccc(OC)cc4C(F)(F)F)[C@@H](O)[C@H](O)[C@H]3O)[C@H](O)[C@@H](O)[C@@H]2O)c(C(F)(F)F)c1 [UM1067] | 1.5 | 100 µM
COc1ccc(C(F)(F)F)cc1C(=O)OC[C@H]1O[C@H](O[C@H]2O[C@H](COC(=O)c3cc(C(F)(F)F)ccc3OC)[C@@H](O)[C@H](O)[C@H]2O)[C@H](O)[C@@H](O)[C@@H]1O [UM1045] | 1.3 | 0.05 µM
CCOc1cc(OCC)cc(C(=O)NC[C@H]2O[C@H](O[C@H]3O[C@H](CNC(=O)c4cc(OCC)cc(OCC)c4)[C@@H](O)[C@H](O)[C@H]3O)[C@H](O)[C@@H](O)[C@@H]2O)c1 [UM1105] | 11 | 3 µM
COc1cc(-c2cccc(C(=O)OC[C@H]3O[C@H](O[C@H]4O[C@H](COC(=O)c5cccc(-c6ccc(F)c(OC)c6)c5)[C@@H](O)[C@H](O)[C@H]4O)[C@H](O)[C@@H](O)[C@@H]3O)c2)ccc1F [UM1059] | 1.8 | 33 µM
O=C(OC[C@H]1O[C@H](O[C@H]2O[C@H](CO)[C@@H](O)[C@H](O)[C@H]2O)[C@H](O)[C@@H](O)[C@@H]1O)c1ccccc1C(F)(F)F [UM1121] | 11 | 2.5 µM
CC(C)(C)c1ccc(O)c(C(=O)NC[C@H]2O[C@H](O[C@H]3O[C@H](CNC(=O)c4cc(C(C)(C)C)ccc4O)[C@@H](O)[C@H](O)[C@H]3O)[C@H](O)[C@@H](O)[C@@H]2O)c1 [UM1106] | 11 | 3 µM
O=C(NC[C@H]1O[C@H](O[C@H]2O[C@H](CNC(=O)c3ccccc3C(F)(F)F)[C@@H](O)[C@H](O)[C@H]2O)[C@H](O)[C@@H](O)[C@@H]1O)c1ccccc1C(F)(F)F [UM1112] | 2 | 100 µM
O=C(OC[C@H]1O[C@H](O[C@H]2O[C@H](COC(=O)c3cccc(-c4cccc(O)c4)c3)[C@@H](O)[C@H](O)[C@H]2O)[C@H](O)[C@@H](O)[C@@H]1O)c1cccc(-c2cccc(O)c2)c1 [UM1057] | 1.8 | 33 µM
Cc1cccc(C)c1C(=O)OC[C@H]1O[C@H](O[C@H]2O[C@H](COC(=O)c3c(C)cccc3C)[C@@H](O)[C@H](O)[C@H]2O)[C@H](O)[C@@H](O)[C@@H]1O [UM1114] | 11 | 2.5 µM
